{"source": "patent US8338490B2", "about": "“Composition for repelling and deterring vermin” (Novartis AG, priority 2006, dated 2012)", "key": {"[1]": {"system": "Boophilus microplus Biarra (larvae)", "assay": "Arena test in vitro against Boophilus microplus Biarra (larvae)", "conditions": "ca. 60 to 100 per well, video evaluation", "method": "This method is carried out in titre plates having 6 wells with a cross-section of 5 cm each, using a computer-supported video system. Each well of the titre plate is lined with a circular filter paper or another suitable carrier material. The substance of formula I to be tested is dissolved in methanol, acetonitrile or another suitable solvent, with ultrasound treatment and heating being employed for poorly-soluble substances. In an amount of 1 to 100 μg/cm^2, the dissolved test substance is placed in the centre of the filter paper on a quadrant or circular area of ca. 2.4 cm^2 radius. 4 of the 6 wells are filled with different test substances or with the same test substance in different dilutions (e.g. 1, 3.2, 5, 10 and 20 μg/cm^2). The 5th well is treated with DEET (N,N-diethyl-m-toluamide) as standard substance. The 6th well is filled with the pure solvent and serves as a control. 60 to 100 larvae or 25 to 50 nymphs or 10 to 25 adults of the parasite to be tested, e.g. ticks, are added to each filter paper, and the system is covered with a pane of glass and positioned under a video camera. At intervals of 5 seconds, the video camera takes individual pictures of all 6 wells. For a qualitative evaluation, these images are observed in a time-lapse as a continuous film, optically following the movements of the parasites on the filter paper and comparing them with the movements in the control well no. 6 or with the standard in the 5th well. A qualitative observation is thus made as to whether the test parasites move evenly over the whole surface of the filter paper and ignore the test substance, or whether and over what period they avoid the treated zone, and what influence the dilution of the test substance has on the behaviour of the test parasites. In this way, neutral and deterring substances are determined. At the same time, the duration of activity of the test substance is determined and compared with that of the standard. By plotting all the images for each individual well over one another, different areas of density are obtained. This represents the frequency at which the parasites visit certain places. This frequency is evaluated statistically and thus quantitatively by the Willcoxon method in a comparison with the control and with the standard. […] Arena Test In Vitro Against Boophilus microplus Biarra (larvae) The test is carried out as described above, with ca. 60 to 100 larvae being added per well. 10 mg of dissolved test substance is applied to an area of 2.4 cm^2 radius. […] Particularly marked long-term activity is shown for example by using the compounds Nos. 1.001, 2.001, 3.001, 4.001, 5.001, 5.184, 5.185, and 5.186 even up to a dilution of 10 μg/cm^2."}, "[2]": {"system": "various parasites, e.g. ticks", "assay": "Arena test: general method for testing vermin-deterring substances", "conditions": "1 to 100 μg/cm^2 on filter paper, video evaluation", "method": "Arena Test: General Method for Testing Vermin-Deterring Substances\nThis method is carried out in titre plates having 6 wells with a cross-section of 5 cm each, using a computer-supported video system. Each well of the titre plate is lined with a circular filter paper or another suitable carrier material. The substance of formula I to be tested is dissolved in methanol, acetonitrile or another suitable solvent, with ultrasound treatment and heating being employed for poorly-soluble substances. In an amount of 1 to 100 μg/cm^2, the dissolved test substance is placed in the centre of the filter paper on a quadrant or circular area of ca. 2.4 cm^2 radius. 4 of the 6 wells are filled with different test substances or with the same test substance in different dilutions (e.g. 1, 3.2, 5, 10 and 20 μg/cm^2). The 5th well is treated with DEET (N,N-diethyl-m-toluamide) as standard substance. The 6th well is filled with the pure solvent and serves as a control. 60 to 100 larvae or 25 to 50 nymphs or 10 to 25 adults of the parasite to be tested, e.g. ticks, are added to each filter paper, and the system is covered with a pane of glass and positioned under a video camera.\nAt intervals of 5 seconds, the video camera takes individual pictures of all 6 wells. For a qualitative evaluation, these images are observed in a time-lapse as a continuous film, optically following the movements of the parasites on the filter paper and comparing them with the movements in the control well no. 6 or with the standard in the 5th well. A qualitative observation is thus made as to whether the test parasites move evenly over the whole surface of the filter paper and ignore the test substance, or whether and over what period they avoid the treated zone, and what influence the dilution of the test substance has on the behaviour of the test parasites. In this way, neutral and deterring substances are determined. At the same time, the duration of activity of the test substance is determined and compared with that of the standard. By plotting all the images for each individual well over one another, different areas of density are obtained. This represents the frequency at which the parasites visit certain places. This frequency is evaluated statistically and thus quantitatively by the Willcoxon method in a comparison with the control and with the standard."}, "[3]": {"system": "Amblyomma hebraeum or variegatum (nymphs)", "assay": "Arena test in vitro against Amblyomma hebraeum or variegatum (nymphs)", "conditions": "ca. 25 to 50 per well, video evaluation", "method": "This method is carried out in titre plates having 6 wells with a cross-section of 5 cm each, using a computer-supported video system. Each well of the titre plate is lined with a circular filter paper or another suitable carrier material. The substance of formula I to be tested is dissolved in methanol, acetonitrile or another suitable solvent, with ultrasound treatment and heating being employed for poorly-soluble substances. In an amount of 1 to 100 μg/cm^2, the dissolved test substance is placed in the centre of the filter paper on a quadrant or circular area of ca. 2.4 cm^2 radius. 4 of the 6 wells are filled with different test substances or with the same test substance in different dilutions (e.g. 1, 3.2, 5, 10 and 20 μg/cm^2). The 5th well is treated with DEET (N,N-diethyl-m-toluamide) as standard substance. The 6th well is filled with the pure solvent and serves as a control. 60 to 100 larvae or 25 to 50 nymphs or 10 to 25 adults of the parasite to be tested, e.g. ticks, are added to each filter paper, and the system is covered with a pane of glass and positioned under a video camera. At intervals of 5 seconds, the video camera takes individual pictures of all 6 wells. For a qualitative evaluation, these images are observed in a time-lapse as a continuous film, optically following the movements of the parasites on the filter paper and comparing them with the movements in the control well no. 6 or with the standard in the 5th well. A qualitative observation is thus made as to whether the test parasites move evenly over the whole surface of the filter paper and ignore the test substance, or whether and over what period they avoid the treated zone, and what influence the dilution of the test substance has on the behaviour of the test parasites. In this way, neutral and deterring substances are determined. At the same time, the duration of activity of the test substance is determined and compared with that of the standard. By plotting all the images for each individual well over one another, different areas of density are obtained. This represents the frequency at which the parasites visit certain places. This frequency is evaluated statistically and thus quantitatively by the Willcoxon method in a comparison with the control and with the standard. […] Arena Test In Vitro Against Amblyomma hebraeum or variegatum (nymphs) The test is carried out as described above, with ca. 25 to 50 nymphs being added per well. 10 mg of dissolved test substance is applied to an area of 2.4 cm^2 radius. […] Particularly marked long-term activity is shown for example by using the compounds Nos. 1.001, 2.001, 3.001, 4.001, 5.001, 5.184, 5.185, and 5.186 even up to a dilution of 3.2 μg/cm^2."}, "[4]": {"system": "Rhipicephalus sanguineus (nymphs)", "assay": "Arena test in vitro against Rhipicephalus sanguineus (nymphs)", "conditions": "ca. 40 to 50, video evaluation", "method": "This method is carried out in titre plates having 6 wells with a cross-section of 5 cm each, using a computer-supported video system. Each well of the titre plate is lined with a circular filter paper or another suitable carrier material. The substance of formula I to be tested is dissolved in methanol, acetonitrile or another suitable solvent, with ultrasound treatment and heating being employed for poorly-soluble substances. In an amount of 1 to 100 μg/cm^2, the dissolved test substance is placed in the centre of the filter paper on a quadrant or circular area of ca. 2.4 cm^2 radius. 4 of the 6 wells are filled with different test substances or with the same test substance in different dilutions (e.g. 1, 3.2, 5, 10 and 20 μg/cm^2). The 5th well is treated with DEET (N,N-diethyl-m-toluamide) as standard substance. The 6th well is filled with the pure solvent and serves as a control. 60 to 100 larvae or 25 to 50 nymphs or 10 to 25 adults of the parasite to be tested, e.g. ticks, are added to each filter paper, and the system is covered with a pane of glass and positioned under a video camera. At intervals of 5 seconds, the video camera takes individual pictures of all 6 wells. For a qualitative evaluation, these images are observed in a time-lapse as a continuous film, optically following the movements of the parasites on the filter paper and comparing them with the movements in the control well no. 6 or with the standard in the 5th well. A qualitative observation is thus made as to whether the test parasites move evenly over the whole surface of the filter paper and ignore the test substance, or whether and over what period they avoid the treated zone, and what influence the dilution of the test substance has on the behaviour of the test parasites. In this way, neutral and deterring substances are determined. At the same time, the duration of activity of the test substance is determined and compared with that of the standard. By plotting all the images for each individual well over one another, different areas of density are obtained. This represents the frequency at which the parasites visit certain places. This frequency is evaluated statistically and thus quantitatively by the Willcoxon method in a comparison with the control and with the standard. […] Arena Test In Vitro Against Rhipicephalus sanguineus (nymphs) A test is carried out analogously to example B using ca. 40 to 50 nymphs. […] In particular, the compounds are notable for their almost complete deterring action, which lasts considerably longer than that of DEET. Particularly marked long-term activity is shown for example by compounds Nos. 1.001, 2.001, 3.001, 4.001, 5.001, 5.184, 5.185, and 5.186 even up to a dilution of 10 μg/cm^2."}}, "data": [{"smiles": "OCC1CCCCN1Cc1ccccc1", "note": "(stereo not drawn) [Compound 1.001]", "values": [{"measurement": "dilution up to which particularly marked long-term activity is shown", "setting": "[1]", "result": 10, "unit": "μg/cm^2"}, {"measurement": "vermin-deterring activity in the arena test", "setting": "[2]", "result": "excellent activity"}, {"measurement": "dilution up to which particularly marked long-term activity is shown", "setting": "[3]", "result": 3.2, "unit": "μg/cm^2"}, {"measurement": "dilution up to which particularly marked long-term activity is shown", "setting": "[4]", "result": 10, "unit": "μg/cm^2"}]}, {"smiles": "OCC1CCCN1Cc1ccccc1", "note": "(stereo not drawn) [Compound 2.001]", "values": [{"measurement": "dilution up to which particularly marked long-term activity is shown", "setting": "[1]", "result": 10, "unit": "μg/cm^2"}, {"measurement": "vermin-deterring activity in the arena test", "setting": "[2]", "result": "excellent activity"}, {"measurement": "dilution up to which particularly marked long-term activity is shown", "setting": "[3]", "result": 3.2, "unit": "μg/cm^2"}, {"measurement": "dilution up to which particularly marked long-term activity is shown", "setting": "[4]", "result": 10, "unit": "μg/cm^2"}]}, {"smiles": "OC1CCN(Cc2ccccc2)C1", "note": "(stereo not drawn) [Compound 3.001, 1-Benzyl-pyrrolidin-3-ol]", "values": [{"measurement": "dilution up to which particularly marked long-term activity is shown", "setting": "[1]", "result": 10, "unit": "μg/cm^2"}, {"measurement": "vermin-deterring activity in the arena test", "setting": "[2]", "result": "excellent activity"}, {"measurement": "dilution up to which particularly marked long-term activity is shown", "setting": "[3]", "result": 3.2, "unit": "μg/cm^2"}, {"measurement": "dilution up to which particularly marked long-term activity is shown", "setting": "[4]", "result": 10, "unit": "μg/cm^2"}]}, {"smiles": "OC1CCCN(Cc2ccccc2)C1", "note": "(stereo not drawn) [Compound 4.001]", "values": [{"measurement": "dilution up to which particularly marked long-term activity is shown", "setting": "[1]", "result": 10, "unit": "μg/cm^2"}, {"measurement": "vermin-deterring activity in the arena test", "setting": "[2]", "result": "excellent activity"}, {"measurement": "dilution up to which particularly marked long-term activity is shown", "setting": "[3]", "result": 3.2, "unit": "μg/cm^2"}, {"measurement": "dilution up to which particularly marked long-term activity is shown", "setting": "[4]", "result": 10, "unit": "μg/cm^2"}]}, {"smiles": "OCCN(Cc1ccccc1)Cc1ccccc1", "note": "[Compound 5.001]", "values": [{"measurement": "dilution up to which particularly marked long-term activity is shown", "setting": "[1]", "result": 10, "unit": "μg/cm^2"}, {"measurement": "vermin-deterring activity in the arena test", "setting": "[2]", "result": "excellent activity"}, {"measurement": "dilution up to which particularly marked long-term activity is shown", "setting": "[3]", "result": 3.2, "unit": "μg/cm^2"}, {"measurement": "dilution up to which particularly marked long-term activity is shown", "setting": "[4]", "result": 10, "unit": "μg/cm^2"}]}, {"smiles": "CC(CO)N(Cc1ccccc1)Cc1ccccc1", "note": "(stereo not drawn) [Compound 5.184]", "values": [{"measurement": "dilution up to which particularly marked long-term activity is shown", "setting": "[1]", "result": 10, "unit": "μg/cm^2"}, {"measurement": "vermin-deterring activity in the arena test", "setting": "[2]", "result": "excellent activity"}, {"measurement": "dilution up to which particularly marked long-term activity is shown", "setting": "[3]", "result": 3.2, "unit": "μg/cm^2"}, {"measurement": "dilution up to which particularly marked long-term activity is shown", "setting": "[4]", "result": 10, "unit": "μg/cm^2"}]}]}
